Values of other authors, collected in paper PMC6719874 (PLoS ONE, 2019).
Entries after “also recorded” stand apart in the source; their conditions may differ.

How the values were obtained:
L-type calcium channels = tested on: L-type calcium channels; set-up: method as in PMID 17125805, PMID 19887376
[1] = tested on: tumors / human xenografts
F656A hERG = F656A hERG (Homo sapiens, UniProt Q12809, F656A); conditions: F656A ref 87
Y652A hERG = target: T1, Y652A hERG (Homo sapiens, UniProt Q12809, Y652A); conditions: Y652A ref 87
T1 construct: host or cells: Xenopus laevis oocytes injected with cRNA
T1 sequence (Q12809 whole entry Y652A): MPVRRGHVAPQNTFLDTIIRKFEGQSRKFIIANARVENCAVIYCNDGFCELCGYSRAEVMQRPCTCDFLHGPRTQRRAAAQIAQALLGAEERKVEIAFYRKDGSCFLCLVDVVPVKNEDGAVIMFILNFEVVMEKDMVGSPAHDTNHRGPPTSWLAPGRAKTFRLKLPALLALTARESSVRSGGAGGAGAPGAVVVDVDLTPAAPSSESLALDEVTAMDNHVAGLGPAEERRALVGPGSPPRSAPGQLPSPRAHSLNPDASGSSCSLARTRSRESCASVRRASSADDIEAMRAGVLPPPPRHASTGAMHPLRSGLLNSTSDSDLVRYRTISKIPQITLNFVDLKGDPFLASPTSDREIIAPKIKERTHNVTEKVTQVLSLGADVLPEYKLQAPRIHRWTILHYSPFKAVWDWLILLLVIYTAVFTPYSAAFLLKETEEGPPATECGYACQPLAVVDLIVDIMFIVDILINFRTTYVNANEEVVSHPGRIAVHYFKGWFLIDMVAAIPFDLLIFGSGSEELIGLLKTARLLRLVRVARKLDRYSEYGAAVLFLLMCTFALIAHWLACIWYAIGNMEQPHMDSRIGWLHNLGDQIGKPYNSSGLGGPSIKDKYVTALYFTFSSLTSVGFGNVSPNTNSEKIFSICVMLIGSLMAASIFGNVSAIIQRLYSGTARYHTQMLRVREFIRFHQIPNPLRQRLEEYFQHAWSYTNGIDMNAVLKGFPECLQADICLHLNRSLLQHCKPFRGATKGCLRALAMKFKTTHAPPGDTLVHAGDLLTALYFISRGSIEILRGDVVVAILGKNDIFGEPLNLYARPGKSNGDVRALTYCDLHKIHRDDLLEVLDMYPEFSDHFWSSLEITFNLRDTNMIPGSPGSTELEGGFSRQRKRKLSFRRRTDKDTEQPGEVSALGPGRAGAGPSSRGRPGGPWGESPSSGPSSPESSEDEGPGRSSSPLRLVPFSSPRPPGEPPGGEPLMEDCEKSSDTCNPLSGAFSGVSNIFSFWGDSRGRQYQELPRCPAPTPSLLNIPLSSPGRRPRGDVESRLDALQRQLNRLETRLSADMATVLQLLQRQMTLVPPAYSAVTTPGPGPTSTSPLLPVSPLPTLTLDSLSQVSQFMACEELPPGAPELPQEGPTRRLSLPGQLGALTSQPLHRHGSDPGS

Chain of F656A hERG (Q12809 whole entry F656A): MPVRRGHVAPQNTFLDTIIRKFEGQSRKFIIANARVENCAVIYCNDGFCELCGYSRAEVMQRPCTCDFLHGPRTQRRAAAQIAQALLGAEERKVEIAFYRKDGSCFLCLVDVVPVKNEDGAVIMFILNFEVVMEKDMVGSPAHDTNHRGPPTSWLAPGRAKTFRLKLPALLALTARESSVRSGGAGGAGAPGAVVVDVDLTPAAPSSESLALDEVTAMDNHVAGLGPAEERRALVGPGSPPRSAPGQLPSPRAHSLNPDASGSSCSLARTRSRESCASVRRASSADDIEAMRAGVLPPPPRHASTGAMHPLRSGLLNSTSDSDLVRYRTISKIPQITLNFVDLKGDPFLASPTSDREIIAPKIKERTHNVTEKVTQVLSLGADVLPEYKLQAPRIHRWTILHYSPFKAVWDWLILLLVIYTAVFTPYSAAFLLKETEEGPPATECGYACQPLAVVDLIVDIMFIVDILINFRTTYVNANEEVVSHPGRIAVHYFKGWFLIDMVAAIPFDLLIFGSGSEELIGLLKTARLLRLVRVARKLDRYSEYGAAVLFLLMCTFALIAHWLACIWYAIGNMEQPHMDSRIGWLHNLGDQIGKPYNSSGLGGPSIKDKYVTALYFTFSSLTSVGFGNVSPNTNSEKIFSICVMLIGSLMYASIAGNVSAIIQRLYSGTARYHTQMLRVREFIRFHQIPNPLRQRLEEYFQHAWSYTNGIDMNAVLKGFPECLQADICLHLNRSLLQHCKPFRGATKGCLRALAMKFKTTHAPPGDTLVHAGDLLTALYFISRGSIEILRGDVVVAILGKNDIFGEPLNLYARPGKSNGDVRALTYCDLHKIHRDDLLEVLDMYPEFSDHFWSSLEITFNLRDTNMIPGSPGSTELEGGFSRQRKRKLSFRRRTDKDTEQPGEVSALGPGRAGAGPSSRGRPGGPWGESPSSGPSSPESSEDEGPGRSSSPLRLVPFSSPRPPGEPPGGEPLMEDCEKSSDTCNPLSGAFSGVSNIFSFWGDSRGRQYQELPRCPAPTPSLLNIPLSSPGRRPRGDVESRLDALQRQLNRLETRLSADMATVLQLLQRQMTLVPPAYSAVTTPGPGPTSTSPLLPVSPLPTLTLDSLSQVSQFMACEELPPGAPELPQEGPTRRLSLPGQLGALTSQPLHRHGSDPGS

In the case of `CCC(CO)Nc1nc(NCc2ccccc2)c2ncn(C(C)C)c2n1` (centres unmarked) [R-roscovitine, 2-(1-ethyl-2-hydroxyethylamino)-6-benzylamino-9-isopropylpurine], the potency of inhibition (L-type calcium channels) is given as ~ 25 μM, the “QT prolongation or other cardiac side effects” value (clinical trial, range of concentrations ref 18) is given as “did not find QT prolongation or other cardiac side effects” and the tolerability (phase II clinical trials) is given as “well tolerated”. The tumor suppression ([1]; mice ref 75-77) was “significant tumor suppression”, the “growth delay of human xenografts” value ([1]; mice ref 78) was “significant growth delay” and the “inhibition of S620T compared to WT” value (S620T hERG) was “similar; also recorded: not different from WT inhibition”.
In the case of `Cc1cccc(C)c1OCC(C)N` (centres unmarked) [mexiletine], the “fold change in IC50 in relation to WT” value (F656A hERG) is listed as ~ 28 fold and the “fold change in IC50 in relation to WT” value (Y652A hERG) is listed as ~ 12 fold.
